Results taken from patent US11059875B2, “Composition for preventing or treating cardiofaciocutaneous syndrome” (Korea Advanced Institute of Science and Technology, priority 2018, dated 2021).
“Also recorded” adds a separate entry of the source.

Key:
Type in all cases: cell-based, human
[1] = system: osteoblasts differentiated from CFC-MSCs; test: Bone mineral deposition (alizarin red S and von Kossa staining) in osteoblasts differentiated from CFC-MSCs; conditions: treated on day 1 for 24 hours (U0126 5 μM, SB-431542 5 μM, BMP4 50 ng/ml), alizarin red S day 14, von Kossa day 21, FIG. 14
Method: (§1) To differentiate into osteoblasts, the MSCs were treated with 0.25% trypsin-EDTA at 37° C. for 2 minutes and separated from the culture dish. The cells were spread on a 4-well culture dish at the density of 2.5×10^4 cells/cm^2, which were cultured in MSC culture medium at 37° C. for 3 days until the cells were full. 3 days later, the medium was replaced with STEMPRO osteogenesis differentiation Medium (Invitrogen), and the medium was replaced every three days. The activity of ALP, which is an enzyme essential for the formation of hydroxyapatite, a major component of bone mineral, and an indicator of osteoblast differentiation, was investigated at 7 day intervals by using an ALP kit (Leucocyte Alkaline Phosphatase Kit, Sigma-Aldrich). […] The cells were washed with distilled water twice and the degree of color change into red was measured to investigate the calcium ion deposition.
(§2) Particularly, the differentiation of CFC-MSCs into osteoblasts was induced by the same manner as described in Experimental Example <2-2>. […] ALP enzyme activity was measured on the 7th day of the differentiation, and alizarin red S staining was performed on the 14th day of the differentiation by the same manner as described in Experimental Example <2-2>. […] After washing the cells with distilled water twice, the amount of calcium deposition was evaluated by the degree of darkening.

[2] = system: osteoblasts differentiated from CFC-MSCs; test: ALP enzyme activity (ALP kit staining) in osteoblasts differentiated from CFC-MSCs; conditions: treated on day 1 for 24 hours (U0126 5 μM, SB-431542 5 μM, BMP4 50 ng/ml), measured on 7th day of differentiation, FIG. 13
Method: as §1, §2

[3] = system: osteoblasts differentiated from CFC-iPSCs; test: Differentiation of CFC syndrome patient derived iPSCs into osteoblasts through mesenchymal stem cells; conditions: CFC patient iPSC-derived cells; FIG. 13 to FIG. 15
Source text: […] The iPSCs derived from wild type (WT) individuals and the iPSCs derived from CFC syndrome patients were induced to be differentiated in vitro for about 30 days by referring to the protocol proposed in a previous paper (Mahmood, Harkness et al. 2010). Particularly, CFC-iPSC colony was divided into 4 to 9 sections (0.5 mm×0.5 mm/each section) by using a tissue chopper provided from Mickle Laboratory Engineering Co. The sections were treated with 10 mg/ml of dispase at 37° C. for 4 minutes and then the sections were detached from the cell culture dish. The separated cell sections were transferred in a Petri dish, followed by culture in EB medium (embryoid body differentiation medium), the Dulbecco's modified Eagle's medium (DMEM/F12) supplemented with 10% serum replacement (SR), 1% penicillin-streptomycin and 1% non-essential amino acids, for a day. […]
To differentiate into osteoblasts, the MSCs were treated with 0.25% trypsin-EDTA at 37° C. for 2 minutes and separated from the culture dish. […] The cells were washed with distilled water twice and the degree of color change into red was measured to investigate the calcium ion deposition. […]

NC(=O)c1ccc(-c2nc(-c3ccc4c(c3)OCO4)c(-c3ccccn3)[nH]2)cc1 [SB-431542]
bone mineral deposition [1]: increase | ALP enzyme activity [2]: increase | differentiation ability into osteoblasts [3]: improved; also recorded: efficient in improving the differentiation ability

B1: BMP4: recombinant human bone morphogenic protein 4, BMP signaling pathway activator, SEQ. ID. NO: 13 (R&D systems) (protein, listed as Homo sapiens)
chain: MIPGNRMLMVVLLCQVLLGGASHASLIPETGKKKVAEIQGHAGGRRSGQSHELLRDFEATLLQMFGLRRRPQPSKSAVIPDYMRDLYRLQSGEEEEEQIHSTGLEYPERPASRANTVRSFHHEEHLENIPGTSENSAFRFLFNLSSIPENEVISSAELRLFREQVDQGPDWERGFHRINIYEVMKPPAEVVPGHLITRLLDTRLVHHNVTRWETFDVSPAVLRWTREKQPNYGLAIEVTHLHQTRTHQGQHVRISRSLPQGSGNWAQLRPLLVTFGHDGRGHALTRRRRAKRSPKHHSQRARKKNKNCRRHSLYVDFSDVGWNDWIVAPPGYQAFYCHGDCPFPLADHLNSTNHAIVQTLVNSVNSSIPKACCVPTELSAISMLYLDEYDKVVLKNYQEMVVEGCGCR
bone mineral deposition [1]: increase | ALP enzyme activity [2]: increase | differentiation ability into osteoblasts [3]: efficient in improving the differentiation ability
